Results reported in patent US9186391B2, “Cyclic peptide inhibitors of lysine-specific demethylase 1” (MUSC FOUNDATION FOR RESEARCH DEVELOPMENT, priority 2013, dated 2015).
Like-named read-outs stand apart in the source and are kept apart here.

Assays:
MAO-A = target: T1, MAO-A (Homo sapiens, UniProt P21397); assay: Inhibition of monoamine oxidase A in vitro; format: biochemical; conditions: read-out: IC50 for inhibition against MAO-A
T1 sequence (P21397 1-527): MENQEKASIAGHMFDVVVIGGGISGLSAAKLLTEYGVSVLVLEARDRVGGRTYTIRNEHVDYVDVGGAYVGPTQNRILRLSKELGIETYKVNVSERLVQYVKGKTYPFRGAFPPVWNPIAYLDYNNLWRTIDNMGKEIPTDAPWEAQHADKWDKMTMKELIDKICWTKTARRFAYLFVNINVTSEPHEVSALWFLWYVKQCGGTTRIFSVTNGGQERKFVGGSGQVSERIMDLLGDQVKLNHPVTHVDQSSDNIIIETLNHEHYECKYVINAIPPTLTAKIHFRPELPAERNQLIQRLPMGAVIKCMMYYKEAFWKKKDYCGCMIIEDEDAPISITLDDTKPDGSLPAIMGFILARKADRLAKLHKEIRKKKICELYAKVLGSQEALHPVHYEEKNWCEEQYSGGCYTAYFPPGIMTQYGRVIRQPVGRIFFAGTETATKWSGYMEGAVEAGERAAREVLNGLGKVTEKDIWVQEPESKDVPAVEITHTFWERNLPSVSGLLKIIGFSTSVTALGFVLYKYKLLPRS
Description: (§1) Each data point is the average of three determinations±standard error.

MAO-B = target: T2, MAO-B (Homo sapiens, UniProt P27338); assay: Inhibition of monoamine oxidase B in vitro; format: biochemical; conditions: read-out: IC50 for inhibition against MAO-B
T2 sequence (P27338 1-520): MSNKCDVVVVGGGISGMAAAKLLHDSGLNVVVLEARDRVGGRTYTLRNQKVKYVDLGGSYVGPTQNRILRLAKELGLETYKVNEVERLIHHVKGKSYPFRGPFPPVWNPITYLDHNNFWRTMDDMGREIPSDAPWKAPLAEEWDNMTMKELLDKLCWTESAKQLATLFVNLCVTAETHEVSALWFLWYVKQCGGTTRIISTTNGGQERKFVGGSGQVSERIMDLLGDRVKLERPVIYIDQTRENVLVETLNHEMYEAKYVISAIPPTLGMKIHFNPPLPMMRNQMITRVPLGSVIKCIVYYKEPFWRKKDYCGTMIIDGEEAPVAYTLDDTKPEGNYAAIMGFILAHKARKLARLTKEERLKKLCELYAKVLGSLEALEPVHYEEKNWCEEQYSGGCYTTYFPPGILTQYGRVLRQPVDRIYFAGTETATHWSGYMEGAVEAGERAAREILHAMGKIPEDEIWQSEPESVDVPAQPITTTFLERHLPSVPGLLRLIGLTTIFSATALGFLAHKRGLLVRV
Description: as §1

MCF-7 breast tumor line = format: cell-based; conditions: MTS assay, 72 hours; read-out: IC50 growth inhibition in MCF-7 cells
Calu-6 lung tumor line = assay: cells; format: cell-based, human; conditions: MTS assay, 72 hours, read-out: IC50 growth inhibition in Calu-6 cells

Row | Compound | IC50 (MAO-A) [µM] | IC50 (MAO-B) [µM] | IC50 (MCF-7 breast tumor line) [µM] | IC50 (Calu-6 lung tumor line) [µM] | IC50 (Calu-6 lung tumor line; Homo sapiens, Calu-6) [µM]
1 | CSCC[C@H](NC(=O)[C@@H](NC(=O)[C@H](CCCNC(=N)N)NC(=O)[C@H](C)N)[C@@H](C)O)C(=O)N[C@H]1CCCCNC(=O)CC[C@@H](C(=O)N[C@H](C(=O)NCC(=O)NCC(=O)N[C@@H](CCCCN)C(=O)N[C@@H](C)C(=O)N2CCC[C@H]2C(=O)N[C@@H](CCCNC(=N)N)C(=O)N[C@@H](CCCCN)C(=O)N[C@@H](CCC(N)=O)C(=O)N[C@@H](CC(C)C)C(=O)N[C@@H](C)C(N)=O)[C@@H](C)O)NC(=O)[C@H](CCCCN)NC(=O)[C@H](CCCNC(=N)N)NC(=O)[C@H](C)NC(=O)[C@H]([C@@H](C)O)NC1=O [compound 11] | > 100 | > 100 | 157 | 125 | –
2 | N=C(NCCCNCCCCCCCNCCCNC(=N)NC(=N)NCCC(c1ccccc1)c1ccccc1)NC(=N)NCCC(c1ccccc1)c1ccccc1 [compound 3, verlindamycin, reference compound] | – | – | – | – | 10.9
